Legend:
erbB2 tyrosine kinase = molecular target: T1, erbB2 tyrosine kinase (Homo sapiens, UniProt P04626); assay: Protein tyrosine kinase phosphorylation assay, Test (a), erbB2; format: biochemical; settings: recombinant intracellular fragment, ATP at Km; read-out: IC50 (μM) Test (a): Inhibition of erbB2 tyrosine kinase protein phosphorylation
T1 construct: Recombinant intracellular fragments of EGFR, erbB2 and erbB4; made in house; host or cells: baculovirus/Sf21
Method: (§1) This test measures the ability of a test compound to inhibit the phosphorylation of a tyrosine containing polypeptide substrate by EGFR or ErbB2 tyrosine kinase enzyme.
(§2) Recombinant intracellular fragments of EGFR, erbB2 and erbB4 (accession numbers X00588, X03363 and L07868 respectively) were cloned and expressed in the baculovirus/Sf21 system. Lysates were prepared from these cells by treatment with ice-cold lysis buffer (20 mM N-2-hydroxyethylpiperizine-N′-2-ethanesulfonic acid (HEPES) pH7.5, 150 mM NaCl, 10% glycerol, 1% Triton X-100, 1.5 mM MgCl2, 1 mM ethylene glycol-bis(β-aminoethyl ether) N′,N′,N′,N′-tetraacetic acid (EGTA), plus protease inhibitors and then cleared by centrifugation.
(§3) Constitutive kinase activity of the recombinant protein was determined by its ability to phosphorylate a synthetic peptide (made up of a random co-polymer of Glutamic Acid, Alanine and Tyrosine in the ratio of 6:3:1). Specifically, Maxisorb™ 96-well immunoplates were coated with synthetic peptide (0.2 μg of peptide in a 100 μl phosphate buffered saline (PBS) solution and incubated at 4° C. overnight). Plates were washed in PBS-T (phosphate buffered saline with 0.5% Tween 20) then in 50 mM HEPES pH 7.4 at room temperature to remove any excess unbound synthetic peptide. […]
(§4) The immobilised phospho-peptide product of the reaction was detected by immunological methods. […] After further washing, HRP activity in each well of the plate was measured colorimetrically using 22′-Azino-di-[3-ethylbenzthiazoline sulfonate (6)] diammonium salt crystals (ABTS™ from Roche) as a substrate.
(§5) Quantification of colour development and thus enzyme activity was achieved by the measurement of absorbance at 405 nm on a Molecular Devices ThermoMax microplate reader. Kinase inhibition for a given compound was expressed as an IC50 value. […] The range of phosphorylation was calculated from the positive (vehicle plus ATP) and negative (vehicle minus ATP) control values.

erbB2 = molecular target: T2, erbB2 (Homo sapiens, UniProt P04626); assay: Clone 24 phospho-erbB2 cell assay, Test (e); format: cell-based; settings: MCF7 derived Clone 24 cells overexpressing erbB2, 4 hrs; read-out: IC50 (μM) Test (e): Inhibition of erbB2 tyrosine kinase protein phosphorylation
T2 construct: overexpresses full length wild type erbB2 protein; expressed in transfected cells; host or cells: MCF7 (breast carcinoma) derived Clone 24 cells
Method: This immunofluorescence end point assay measures the ability of a test compound to inhibit the phosphorylation of erbB2 in a MCF7 (breast carcinoma) derived cell line which was generated by transfecting MCF7 cells with the full length erbB2 gene using standard methods to give a cell line that overexpresses full length wild type erbB2 protein (hereinafter ‘Clone 24’ cells).
Clone 24 cells were cultured in Growth Medium (phenol red free Dulbecco's modified Eagle's medium (DMEM) containing 10% foetal bovine serum, 2 mM glutamine and 1.2 mg/ml G418) in a 7.5% CO2 air incubator at 37° C. Cells were harvested from T75 stock flasks by washing once in PBS (phosphate buffered saline, pH7.4, Gibco No. 10010-015) and harvested using 2 mls of Trypsin (1.25 mg/ml)/ethylaminediaminetetraacetic acid (EDTA) (0.8 mg/ml) solution. The cells were resuspended in Growth Medium. Cell density was measured using a haemocytometer and viability was calculated using Trypan Blue solution before being further diluted in Growth Medium and seeded at a density of 1×10^4 cells per well (in 100 ul) into clear bottomed 96 well plates (Packard, No. 6005182).
3 days later, Growth Medium was removed from the wells and replaced with 100 ul Assay Medium (phenol red free DMEM, 2 mM glutamine, 1.2 mg/ml G418) either with or without erbB inhibitor compound. Plates were returned to the incubator for 4 hrs and then 20 μl of 20% formaldehyde solution in PBS was added to each well and the plate was left at room temperature for 30 minutes. This fixative solution was removed with a multichannel pipette, 100 μl of PBS was added to each well and then removed with a multichannel pipette and then 50 μl PBS was added to each well. Plates were then sealed and stored for up to 2 weeks at 4° C.
Immunostaining was performed at room temperature. […]
The Fluorescence signal is each well was measured using an Acumen Explorer Instrument (Acumen Bioscience Ltd.), a plate reader that can be used to rapidly quantitate features of images generated by laser-scanning. […]

KB cells = assay: EGFR driven KB cell proliferation assay, Test (b); format: cell-based; settings: Homo sapiens, 96 h, EGF 1 ng/ml, 4 days, MTT
Method: This assay measures the ability of a test compound to inhibit the proliferation of KB cells (human naso-pharangeal carcinoma obtained from the American Type Culture Collection (ATCC).
KB cells (human naso-pharangeal carcinoma obtained from the ATCC were cultured in Dulbecco's modified Eagle's medium (DMEM) containing 10% foetal calf serum, 2 mM glutamine and non-essential amino acids at 37° C. in a 7.5% CO2 air incubator. Cells were harvested from the stock flasks using Trypsin/ethylaminediaminetetraacetic acid (EDTA). Cell density was measured using a haemocytometer and viability was calculated using trypan blue solution before being seeded at a density of 1.25×10^3 cells per well of a 96 well plate in DMEM containing 2.5% charcoal stripped serum, 1 mM glutamine and non-essential amino acids at 37° C. in 7.5% CO2 and allowed to settle for 4 hours.
Following adhesion to the plate, the cells are treated with or without EGF (final concentration of 1 ng/ml) and with or without compound at a range of concentrations in dimethylsulfoxide (DMSO) (0.1% final) before incubation for 4 days. Following the incubation period, cell numbers were determined by addition of 50 μl of 3-(4,5-Dimethylthiazol-2-yl)-2,5-diphenyltetrazolium bromide (MTT) (stock 5 mg/ml) for 2 hours. […]
Absorbance of the solubilised cells was read at 540 nm using a Molecular Devices ThermoMax microplate reader. […]

EGFR tyrosine kinase = molecular target: T3, EGFR tyrosine kinase (Homo sapiens, UniProt P00533); assay: Protein tyrosine kinase phosphorylation assay, Test (a), EGFR; format: biochemical; settings: recombinant intracellular fragment, ATP at Km; read-out: IC50 (μM) Test (a): Inhibition of EGFR tyrosine kinase protein phosphorylation
T3 construct: Recombinant intracellular fragments of EGFR, erbB2 and erbB4; made in house; host or cells: baculovirus/Sf21
Method: as §1, §2, §3, §4, §5

T2 sequence (P04626 23-1255): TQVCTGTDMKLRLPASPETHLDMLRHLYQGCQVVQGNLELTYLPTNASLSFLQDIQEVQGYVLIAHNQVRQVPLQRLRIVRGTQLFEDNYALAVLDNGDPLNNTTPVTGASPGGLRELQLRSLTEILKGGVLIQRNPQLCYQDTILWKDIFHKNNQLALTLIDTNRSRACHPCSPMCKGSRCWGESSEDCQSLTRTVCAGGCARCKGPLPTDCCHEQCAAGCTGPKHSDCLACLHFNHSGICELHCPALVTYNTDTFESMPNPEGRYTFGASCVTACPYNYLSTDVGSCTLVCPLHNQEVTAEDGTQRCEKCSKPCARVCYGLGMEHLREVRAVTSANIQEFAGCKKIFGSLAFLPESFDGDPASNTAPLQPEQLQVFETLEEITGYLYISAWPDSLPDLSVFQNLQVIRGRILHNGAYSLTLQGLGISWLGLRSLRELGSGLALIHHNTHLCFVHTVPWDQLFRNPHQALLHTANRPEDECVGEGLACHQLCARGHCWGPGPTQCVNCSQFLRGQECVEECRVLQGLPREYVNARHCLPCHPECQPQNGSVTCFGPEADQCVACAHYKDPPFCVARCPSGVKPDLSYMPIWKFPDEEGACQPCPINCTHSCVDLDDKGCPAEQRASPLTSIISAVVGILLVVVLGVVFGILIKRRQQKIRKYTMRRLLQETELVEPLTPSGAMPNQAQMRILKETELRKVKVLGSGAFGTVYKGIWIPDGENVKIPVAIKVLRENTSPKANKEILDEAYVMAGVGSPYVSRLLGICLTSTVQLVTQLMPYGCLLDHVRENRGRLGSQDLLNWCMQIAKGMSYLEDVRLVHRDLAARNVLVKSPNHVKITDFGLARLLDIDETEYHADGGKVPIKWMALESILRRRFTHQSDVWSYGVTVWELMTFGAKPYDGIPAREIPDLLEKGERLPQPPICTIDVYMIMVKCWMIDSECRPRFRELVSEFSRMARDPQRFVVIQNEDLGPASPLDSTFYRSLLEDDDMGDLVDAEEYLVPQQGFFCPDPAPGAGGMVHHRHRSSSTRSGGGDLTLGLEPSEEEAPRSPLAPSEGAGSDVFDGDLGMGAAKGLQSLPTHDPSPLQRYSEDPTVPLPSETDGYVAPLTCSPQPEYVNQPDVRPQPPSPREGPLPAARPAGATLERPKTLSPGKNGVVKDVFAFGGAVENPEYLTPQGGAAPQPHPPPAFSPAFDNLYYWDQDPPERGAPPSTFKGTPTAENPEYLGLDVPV
T3 sequence (P00533 669-1210 limits assumed): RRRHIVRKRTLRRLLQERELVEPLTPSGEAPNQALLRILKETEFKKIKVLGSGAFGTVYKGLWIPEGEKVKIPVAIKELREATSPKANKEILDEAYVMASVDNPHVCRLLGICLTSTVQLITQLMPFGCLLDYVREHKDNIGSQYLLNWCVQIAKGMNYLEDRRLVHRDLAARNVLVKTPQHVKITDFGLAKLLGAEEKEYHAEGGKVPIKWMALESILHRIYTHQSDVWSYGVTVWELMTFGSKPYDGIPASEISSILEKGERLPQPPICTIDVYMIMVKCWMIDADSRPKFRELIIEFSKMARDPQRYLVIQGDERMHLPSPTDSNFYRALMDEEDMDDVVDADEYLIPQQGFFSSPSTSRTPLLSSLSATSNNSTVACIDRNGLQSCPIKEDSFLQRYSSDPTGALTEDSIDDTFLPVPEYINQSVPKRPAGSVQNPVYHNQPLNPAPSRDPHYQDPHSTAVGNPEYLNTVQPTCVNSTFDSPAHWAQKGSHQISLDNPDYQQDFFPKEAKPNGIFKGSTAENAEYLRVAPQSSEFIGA
T1 sequence (P04626 676-1255 limits assumed): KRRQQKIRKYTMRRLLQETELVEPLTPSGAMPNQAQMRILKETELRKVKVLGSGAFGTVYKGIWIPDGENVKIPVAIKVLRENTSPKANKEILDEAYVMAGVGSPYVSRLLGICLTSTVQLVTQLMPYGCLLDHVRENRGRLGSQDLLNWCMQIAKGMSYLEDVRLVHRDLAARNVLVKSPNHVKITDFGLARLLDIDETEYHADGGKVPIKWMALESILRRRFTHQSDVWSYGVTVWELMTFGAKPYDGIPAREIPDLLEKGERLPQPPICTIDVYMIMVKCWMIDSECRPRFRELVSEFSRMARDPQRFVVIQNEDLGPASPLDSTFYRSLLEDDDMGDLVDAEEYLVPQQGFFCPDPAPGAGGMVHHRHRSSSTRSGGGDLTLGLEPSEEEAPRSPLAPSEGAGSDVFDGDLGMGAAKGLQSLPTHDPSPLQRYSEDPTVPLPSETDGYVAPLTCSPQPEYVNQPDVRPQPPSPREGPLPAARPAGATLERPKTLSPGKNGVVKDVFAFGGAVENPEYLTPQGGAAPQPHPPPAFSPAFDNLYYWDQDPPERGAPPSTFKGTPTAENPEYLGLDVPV

SMILES | IC50 (erbB2 tyrosine kinase) [µM] | IC50 (erbB2) [µM] | IC50 (KB cells) [µM] | IC50 (EGFR tyrosine kinase) [µM]
CNC(=O)CN1CCC(Oc2cc3c(Nc4ccc(F)c(Cl)c4F)ncnc3cc2OC)CC1 [Example 5, 4-(3-chloro-2,4-difluoroanilino)-7-methoxy-6-{[1-(N-methycarbamoylmethyl)piperidin-4-yl]oxy}quinazoline] | 0.047 | 0.006 | 0.009 | 0.004
COc1cc2ncnc(Nc3cccc(Cl)c3F)c2cc1OC1CCN(CC(=O)NCCN2CCCC2)CC1 [Example 7, 4-(3-chloro-2-fluoroanilino)-7-methoxy-6-{[1-(N-[2-(pyrrolidin-1-yl)ethyl]carbamoylmethyl)piperidin-4-yl]oxy}quinazoline] | 0.013 | 0.014 | 0.017 | 0.003
COc1cc2ncnc(Nc3cccc(Cl)c3F)c2cc1OC1CCN(CC(=O)N2CCN(C)CC2)CC1 [Example 10, 4-(3-chloro-2-fluoroanilino)-7-methoxy-6-({1-[2-(4-methylpiperazin-1-yl)-2-oxoethyl]piperidin-4-yl}oxy)quinazoline] | 0.01 | 0.013 | – | 0.004

From US8318752B2, “4-(3-chloro-2-fluoroanilino)-7-methoxy-6-{[1-(N-methylcarbamoyl-methyl)piperidin-4-yl]oxy}quinazoline, its pharmaceutically acceptable salts, and pharmaceutical compositions comprising the same” (Astrazeneca AB, priority 2003, dated 2012)
